In ChEMBL document CHEMBL6127027, “Conserved gatekeeper methionine regulates the binding and access of kinase inhibitors to ATP sites of MAP2K1, 4, and 7: Clues for developing selective inhibitors” (Bioorg Med Chem Lett, 2024):
Calls of active or inactive are those of the source. The calls are words filed in the database; no cut-off is given here.

Key:
[1] = target: T1, Dual specificity mitogen-activated protein kinase kinase 4 (Homo sapiens, UniProt P45985); experiment: Inhibition of MAP2K4 (unknown origin)
T1 sequence (P45985 whole entry): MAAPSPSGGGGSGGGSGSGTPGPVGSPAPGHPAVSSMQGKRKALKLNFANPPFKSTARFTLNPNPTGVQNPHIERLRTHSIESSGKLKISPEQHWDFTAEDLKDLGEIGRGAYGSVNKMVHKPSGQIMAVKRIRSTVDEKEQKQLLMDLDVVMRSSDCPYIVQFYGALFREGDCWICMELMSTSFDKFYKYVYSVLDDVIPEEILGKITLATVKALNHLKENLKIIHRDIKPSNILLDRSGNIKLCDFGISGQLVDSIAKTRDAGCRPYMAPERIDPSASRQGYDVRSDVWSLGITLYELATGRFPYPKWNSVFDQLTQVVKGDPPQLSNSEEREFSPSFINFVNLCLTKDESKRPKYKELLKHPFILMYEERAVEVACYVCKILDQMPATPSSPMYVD

[2] = target: Dual specificity mitogen-activated protein kinase kinase 1 (Homo sapiens, UniProt Q02750); experiment: Inhibition of MAP2K1 (unknown origin)
[3] = target: T2, Dual specificity mitogen-activated protein kinase kinase 4 (Homo sapiens) (UniProt P45985); experiment: Inhibition of MAP2K4 (unknown origin) at 100 uM
T2 sequence (whole entry): T1 sequence (P45985 whole entry)

[4] = target: T3, Dual specificity mitogen-activated protein kinase kinase 7 (Homo sapiens) (UniProt O14733); experiment: Inhibition of MAP2K7 (unknown origin) at 100 uM relative to control
T3 sequence (whole entry): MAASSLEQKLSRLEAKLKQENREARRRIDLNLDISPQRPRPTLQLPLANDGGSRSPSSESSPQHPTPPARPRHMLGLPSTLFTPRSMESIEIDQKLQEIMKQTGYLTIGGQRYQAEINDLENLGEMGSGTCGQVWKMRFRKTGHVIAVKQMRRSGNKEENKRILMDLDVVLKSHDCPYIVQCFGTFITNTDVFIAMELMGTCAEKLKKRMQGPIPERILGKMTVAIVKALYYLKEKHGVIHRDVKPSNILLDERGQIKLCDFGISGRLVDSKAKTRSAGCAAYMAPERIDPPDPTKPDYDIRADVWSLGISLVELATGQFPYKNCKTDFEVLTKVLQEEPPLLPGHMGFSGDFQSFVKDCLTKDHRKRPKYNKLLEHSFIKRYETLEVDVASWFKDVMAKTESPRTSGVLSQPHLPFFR

Dual specificity mitogen-activated protein kinase kinase 1, sequence (Q02750 whole entry): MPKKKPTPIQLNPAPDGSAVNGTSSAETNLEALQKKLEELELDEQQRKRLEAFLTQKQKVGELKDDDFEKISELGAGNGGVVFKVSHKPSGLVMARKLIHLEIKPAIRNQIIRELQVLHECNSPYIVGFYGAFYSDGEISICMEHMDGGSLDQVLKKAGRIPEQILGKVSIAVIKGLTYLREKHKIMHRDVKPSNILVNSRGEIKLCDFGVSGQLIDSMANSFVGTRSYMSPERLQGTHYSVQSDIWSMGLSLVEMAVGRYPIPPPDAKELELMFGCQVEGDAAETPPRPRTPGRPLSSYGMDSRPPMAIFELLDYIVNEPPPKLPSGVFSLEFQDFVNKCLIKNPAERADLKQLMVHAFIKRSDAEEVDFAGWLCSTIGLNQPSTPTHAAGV

Row | Compound | IC50 [1] | IC50 [2] | inhibition [3] | inhibition [4]
1 | COc1cc(O)c2c(c1)/C=C/C[C@H](O)[C@H](O)C(=O)/C=C\C[C@H](C)OC2=O | 4.7 µM | – | – | –
2 | COc1cc(O)c2c(c1)/C=C/C[C@H](O)[C@H](O)C(=O)CCC[C@H](C)OC2=O | – | 5.2 µM | inactive | 25%
